Laboratory results published in patent US20020055528A1, “Artemisinin analogs having antimalarial, antiproliferative, and antitumor activities and chemoselective methods of making the same” (priority 1999, published 2002).
Entries after “also recorded” stand apart in the source; their conditions may differ. Like-named read-outs stand apart in the source and are kept apart here.

Experiments:
[1] = test system: RXF 393; experiment: NCI 60 cell line screen (SRB), Renal Cancer; format: cell-based
[2] = test system: NCI-H522; experiment: NCI 60 cell line screen (SRB), Non-Small Cell Lung Cancer; format: cell-based
[3] = test system: MDA-N; experiment: NCI 60 cell line screen (SRB), Breast Cancer; format: cell-based
[4] = test system: SR; experiment: NCI 60 cell line screen (SRB), Leukemia; format: cell-based; conditions: Table IV (LC50, PG=−50)
[5] = test system: MCF7; experiment: NCI 60 cell line screen (SRB), Breast Cancer; format: cell-based
[6] = test system: OVCAR-3; experiment: NCI 60 cell line screen (SRB), Ovarian Cancer; format: cell-based; conditions: PG=0
[7] = test system: MDA-MB-435; experiment: NCI 60 cell line screen (SRB), Breast Cancer; format: cell-based
[8] = test system: PC-3; experiment: NCI 60 cell line screen (SRB), Prostate Cancer; format: cell-based
[9] = test system: COLO 205; experiment: NCI 60 cell line screen (SRB), Colon Cancer; format: cell-based; conditions: PG=+50
[10] = test system: HCT-15; experiment: NCI 60 cell line screen (SRB), Colon Cancer; format: cell-based
[11] = test system: HOP-62; experiment: NCI 60 cell line screen (SRB), Non-Small Cell Lung Cancer; format: cell-based
[12] = test system: MOLT-4
Procedure: (§1) The screening assay is performed on 96-well microtitre plates. Relatively high initial inoculation densities are used, in order to permit measurement of “time-zero” values and to enhance the screen's ability to detect and provide some differentiation between antiproliferative and cytotoxic response parameters. […] The inoculated microtitre plates are pre-incubated for 24 hours at 37θC prior to drug additions. The five drug dilutions tested routinely range from 10^−4 to 10^−8 molar. Higher or lower concentration ranges may be selected on a nonroutine basis if appropriate solubility and/or prior biological information or other screening data so dictate. Duplicate wells are prepared for all concentrations, (concentration is often denoted by placing brackets around a number); “time-zero” and “no drug” controls are also provided for each test. The minimum amount of compound required for a one-time evaluation in the routine screen can be calculated from the knowledge that each test requires a total of approximately 40 ml (0.04 liter) of cell culture medium containing the highest desired drug concentration. Thus, the amount (grams) of sample required (assuming an upper test concentration limit of 10^−4 M) is: molecular weight of compound×[…]. After a 48 hour incubation (37θC) with the test compound, the cells are fixed in situ to the bottoms of the microtitre wells by addition of 50 ul of either 50% trichloroacetic acid (for adherent cell lines) or 80% trichloroacetic acid (for settled cell suspension lines), followed by incubation for 60 minutes at 4θC. The cellular protein in each well is assayed using a sulforhodamine B (SRB) stain procedure. Briefly, after discarding the supernatants, the microtitre plates are washed 5 times with deionized water and air-dried. One hundred microliters of SRB solution (0.4% w/v in 1% acetic acid) is added to each microtitre well and incubated for 10 minutes at room temperature. Unbound SRB is removed by washing 5 times with 1 % acetic acid. The plates are air-dried, the bound stain is solubilized with Tris buffer, and the optical densities read at 515 nm. SRB is a bright pink anionic dye which, in dilute acetic acid, binds electrostatically to the basic amino acids of TCA-fixed cells. Cryopreserved master stocks of all the lines are maintained, and cultures used for screening are replaced from the master stock after no more than twenty passages in the screening laboratory. The cell line panel consists of 60 lines, organized into nine, disease-related subpanels including leukemia, non-small-cell lung cancer, colon, CNS, melanoma, ovarian, renal, prostate and breast cancers.
(§2) The response parameters G150 and LC50 are interpolated values representing the concentrations at which the percentage growth (PG) is +50 and −50, respectively:
(§3) GI50 is the concentration for which the PG=+50. At this value the increase from time tzero, in the number or mass of cells in the test well is only 50% as much as the corresponding increase in the control well during this period of the experiment, see Table II. A drug effect of this intensity is interpreted as primary growth inhibition.
(§4) TGI is the concentration for which PG=0. At this value the number or mass of cells in the well at the end of the experiment equals the number or mass of cells in the well at time tzero, see Table III. A drug effect of this intensity is regarded as cytostasis.
(§5) LC50 is the concentration for which the PG=−50. At this value, the number or mass of cells in the test well at the end of the experiment is half that at time tzero, see Table IV. This is interpreted as cytotoxicity.

[13] = test system: 60 cell line panel; experiment: NCI 60 cell line screen (SRB), whole panel; format: cell-based
Procedure: as §1, §2, §3, §4, §5

[14] = test system: SN12C; experiment: NCI 60 cell line screen (SRB), Renal Cancer; format: cell-based
[15] = test system: LOX IMVI; experiment: NCI 60 cell line screen (SRB), Melanoma; format: cell-based
[16] = test system: OVCAR-8; experiment: NCI 60 cell line screen (SRB), Ovarian Cancer; format: cell-based
[17] = test system: SNB-75; experiment: NCI 60 cell line screen (SRB), CNS Cancer; format: cell-based
[18] = test system: 786-0; experiment: NCI 60 cell line screen (SRB), Renal Cancer; format: cell-based
[19] = test system: BT-549; experiment: NCI 60 cell line screen (SRB), Breast Cancer; format: cell-based

In the case of CC1=C(C=Cc2cccc(C=CC3=C(C)C4CCC(C)C5CCC6(C)OOC45C(O3)O6)c2)OC2OC3(C)CCC4C(C)CCC1C24OO3 (stereo not drawn) [VII-h], the Log10TGI ([1]; PG=0) is reported as >−4.00 log10M, the Log10GI50 ([1]; PG=+50) is reported as −6.48 log10M and the Log10GI50 ([1]; Table IV (LC50, PG=−50)) is reported as >−4.00 log10M. For the same compound, the Log10TGI ([2]; PG=0) was >−4.00 log10M, the Log10GI50 ([2]; PG=+50) was −7.22 log10M and the Log10GI50 ([2]; Table IV (LC50, PG=−50)) was >−4.00 log10M. The Log10TGI ([3]; PG=0) was −5.42 log10M, the Log10GI50 ([3]; PG=+50) was −7.33 log10M and the Log10GI50 ([3]; Table IV (LC50, PG=−50)) was >−4.00 log10M. For the same compound, the Log10GI50 [4] was >−4.00 log10M, the Log10TGI ([5]; PG=0) was −4.31 log10M and the Log10GI50 ([5]; PG=+50) was −7.33 log10M. The Log10GI50 ([5]; Table IV (LC50, PG=−50)) was >−4.00 log10M, the Log10TGI [6] was >−4.00 log10M and the Log10TGI ([7]; MDA-MB-435, PG=0) was >−4.00 log10M. For the same compound, the Log10GI50 ([7]; MDA-MB−435, PG=+50) was −7.29 log10M, the Log10GI50 ([7]; Table IV (LC50, PG=−50), MDA-MB-435) was >−4.00 log10M and the Log10TGI ([8]; PG=0) was >−4.00 log10M. The “Log10 GI50 (PG=+50) or LC50 (PG=−50)” value ([8]; PG=+50) was −7.70 log10M, the “Log10 GI50 (PG=+50) or LC50 (PG=−50)” value ([8]; Table IV (LC50, PG=−50)) was >−4.00 log10M and the Log10GI50 [9] was −7.88 log10M. For the same compound, the Log10TGI ([10]; PG=0) was >−4.00 log10M, the “log10 GI50 (PG=+50) or LC50 (PG=−50), per row condition” value ([10]; PG=+50) was −7.39 log10M and the “log10 GI50 (PG=+50) or LC50 (PG=−50), per row condition” value ([10]; Table IV (LC50, PG=−50)) was >−4.00 log10M. For the same compound, the Log10TGI ([11]; PG=0) was >−4.00 log10M, the Log10GI50 ([11]; PG=+50) was −7.08 log10M and the Log10GI50 ([11]; Table IV (LC50, PG=−50)) was >−4.00 log10M. For the same compound, the “drug concentration for cytotoxicity (percentage growth −50)” value [12] was “greater than 10^−4 M”, the “drug concentration for primary growth inhibition (percentage growth +50)” value ([12]; MOLT-4, FIGS. 6a-6e) was “greater than 10^−8 molar” and the Log10GI50 ([12]; MOLT-4, PG=+50) was <−8.00 log10M. The Log10TGI ([12]; MOLT−4, PG=0) was <−8.00 log10M, the Log10GI50 ([12]; Table IV (LC50, PG=−50), MOLT−4) was >−4.00 log10M and the “MG MID of Log10GI50 (Table IV)” value ([13]; Table IV (LC50), mean over the panel) was −4.01 log10M. For the same compound, the “Delta of Log10GI50 (Table IV)” value ([13]; Table IV (LC50), panel summary) was 0.43, the “Range of Log10GI50 (Table IV)” value ([13]; Table IV (LC50), panel summary) was “.44” and the “potency in words, compared with artemisinin and paclitaxel” value ([13]; Tables II, III and IV) was “in most instances are as potent and in some instances more potent than paclitaxel; also recorded: more potent than artemisinin and equivalent to and in many instances higher in potency than paclitaxel”. The “MG MID of Log10GI50” value ([13]; mean over the panel) was −7.03 log10M, the “MG MID of Log10TGI” value ([13]; mean over the panel) was −4.61 log10M and the “Delta of Log10GI50” value ([13]; panel summary) was 0.97. For the same compound, the “Delta of Log10TGI” value ([13]; panel summary) was 2.62, the “Range of Log10GI50” value ([13]; panel summary) was 4.00 and the “Range of Log10TGI” value ([13]; panel summary) was 3.23. For the same compound, the Log10TGI ([14]; SN12C, PG=0) was >−4.00 log10M, the Log10GI50 ([14]; SNI2C, PG=+50) was −7.31 log10M and the Log10GI50 ([14]; Table IV (LC50, PG=−50), SN12C) was −4.00 log10M. It also gave a Log10TGI ([15]; PG=0) of −5.67 log10M, a Log10GI50 ([15]; PG=+50) of −7.40 log10M and a Log10GI50 ([15]; Table IV (LC50, PG=−50)) of −4.15 log10M. The Log10TGI ([16]; PG=0) was >−4.00 log10M, the Log10GI50 ([16]; PG=+50) was −7.33 log10M and the Log10GI50 ([16]; Table IV (LC50, PG=−50)) was >−4.00 log10M. For the same compound, the Log10TGI ([17]; PG=0) was −5.08 log10M, the “Log10 GI50 (PG=+50) or LC50 (PG=−50)” value ([17]; PG=+50) was −6.99 log10M and the “Log10 GI50 (PG=+50) or LC50 (PG=−50)” value ([17]; Table IV (LC50, PG=−50)) was >−4.00 log10M. The Log10TGI ([18]; PG=0) was >−4.00 log10M, the Log10GI50 ([18]; PG=+50) was −7.02 log10M and the Log10GI50 ([18]; Table IV (LC50, PG=−50)) was >−4.00 log10M. The Log10TGI ([19]; PG=0) was −7.10 log10M, the Log10GI50 ([19]; PG=+50) was <−8.00 log10M and the Log10GI50 ([19]; Table IV (LC50, PG=−50)) was >−4.00 log10M.
